Values of other authors in patent US20070231312A1, “NUTRITIONAL SUPPLEMENT FOR PREGNANT FEMALES” (priority 2006, published 2007).

Experiments:
[1] = supplementation in pregnancy
primigravida women = conditions: 2 mg. twice daily beginning at 16-20 wks; placebo 17.7%, P<0.05
[2] = test system: oxidative mitochondrial damage; conditions: in vitro studies, ischemia reperfusion model
glutathione peroxidase = conditions: placental homogenates from late human gestation
[3] = test system: women at high risk for developing preeclampsia; conditions: treatment group; 1000 μg. per day for 6 to 8 weeks during late gestation; placebo 22.7%

CC1=C(/C=C/C(C)=C/C=C/C(C)=C/C=C/C=C(C)/C=C/C=C(C)/C=C/C2=C(C)CCCC2(C)C)C(C)(C)CCC1 [beta-carotene]
level in maternal serum [1]: increase

CC(C)=CCC/C(C)=C/C=C/C(C)=C/C=C/C(C)=C/C=C/C=C(C)/C=C/C=C(C)/C=C/C=C(\C)CCC=C(C)C [lycopene, Lycopene]
women developing preeclampsia (primigravida women): 8.6%

COC(=O)[C@@H](N)CCCNC(=N)N[N+](=O)[O-] [L-NAME, N^G-nitro-L-arginine methyl ester]
effects on blood pressure, fetal growth and proteinuria (pregnant rats): elevated blood pressure, fetal retarded growth and proteinuria

COc1ccc2[nH]cc(CCNC(C)=O)c2c1 [melatonin, Melatonin]
protection against oxidative mitochondrial damage [2]: protects against oxidative mitochondrial damage
glutathione peroxidase activity (glutathione peroxidase): reduction

[Se] [Selenium]
incidence of pregnancy-induced hypertension [3]: 7.7%
